Data on two compounds can be found in US8242080B2, “Inhibitors of the EGFR kinase targeting the asymmetric activating dimer interface” (The Regents of the University of California, priority 2006, dated 2012).

The target of test [1] is T1, wildtype EGFR kinase domain (Homo sapiens, UniProt P00533).
T1 construct: DNA encoding residues 672-998 of human EGFR was cloned into pFAST BAC HT; made in house; host or cells: Sf9 insect cells (baculovirus, pFAST BAC HT; b247 prints 'SD cells')
In words: Continuous enzyme-coupled kinase assay, substrate peptide KM. In kind it is biochemical. The note with it: preliminary experiments, substrate peptide at various concentrations; ATP 0.5 mM. As for the experimental part: (§1) A continuous enzyme-coupled kinase assay was performed to measure the kinase activity of the proteins as described in Barker et al., ((1995) Biochemistry, Vol. 34(54): 14843-51), with modifications, as described herein. The ATP concentration was kept to 0.5 mM.
(§2) The buffer used contained 10 mM MgCl2, 20 mM Tris, and pH 7.5. […] The substrate peptide was derived from the region spanning Y1173 in EGFR ([…]) (SEQ ID NO: 7). All proteins used in this assay contained the N-terminal (His)6 tag unless otherwise noted.
For comparing the specific activity of the wildtype and various mutant forms of the EGFR kinase domain in the presence and absence of lipid vesicles, the density of DOGS-NTA-Ni on lipid vesicles was kept at 5 mole percent. […] Due to this high value of KM, the values of KM and kcat were not measured directly. Instead, the value of kcat/KM was derived from a linear fit to the data obtained, using concentrations of the peptide that are much lower than the estimated value of KM (V=[S]Vmax/(KM+[S]), V˜(Vmax/KM)[S] when [S]<<KM, kcat=Vmax/amount of the enzyme, where V and Vmax are the initial velocity and maximum initial velocity, respectively. (FIG. 6A).

The target in a further test is T2, activated EGFR kinase (Homo sapiens, UniProt P00533).
T2 construct: DNA encoding residues 672-998 of human EGFR was cloned into pFAST BAC HT; made in house; host or cells: Sf9 insect cells (baculovirus, pFAST BAC HT; b247 prints 'SD cells')
In words: Inhibition of activated EGFR kinase (kinase assay with kinase domain attached to vesicles). It counts as biochemical. As to conditions: read-out: IC50 inhibiting activated EGFR kinase. As for the experimental part: as §1, §2
The protein concentrations of the EGFR kinase domain used in the assay ranged from 3.5 to 14 μM. The total concentration of the DOGS-NTA-Ni in the bulk solution was kept to 12.5 μM in all assays with DOG-NTA-Ni-containing vesicles. For assays of the kinase domain attached to vesicles, the protein and vesicles were preincubated at 4° C. for ˜5 min.
The wildtype EGFR kinase domain was mixed with vesicles containing 0, 0.5, 1, 2 and 5 mole percent of DOGS-NTA-Ni prior to the start of the assay. The final concentration of the protein in the assay was 3.5 μM. […]
For comparing the specific activity of the wildtype and various mutant forms of the EGFR kinase domain in the presence and absence of lipid vesicles, the density of DOGS-NTA-Ni on lipid vesicles was kept at 5 mole percent. […] Due to this high value of KM, the values of KM and kcat were not measured directly. […]

Where a SMILES comes first, the peptide text is derived from it.

One may read the Km as the substrate concentration at which the rate is half of its maximum. By IC50 is commonly meant the concentration that inhibits the measured activity by half.

With `CC(C)C[C@H](NC(=O)[C@H](Cc1ccc(O)cc1)NC(=O)[C@H](CCC(=O)O)NC(=O)[C@H](C)NC(=O)[C@H](CC(N)=O)NC(=O)[C@H](CCC(=O)O)NC(=O)[C@H](C)NC(=O)[C@@H](N)[C@@H](C)O)C(=O)N[C@@H](CCCNC(=N)N)C(=O)N[C@H](C(=O)N[C@@H](C)C(=O)N1CCC[C@H]1C(=O)N[C@@H](CCC(N)=O)C(=O)O)C(C)C` [substrate peptide] (H-TAENAEYLRVAPQ-OH), the Michaelis-Menten constant (Km) in test [1] was more than 4 mM.

In the case of “KSLPSYLNGVMPPTQSFAPDPKYVSS [40-mer peptide]”, the concentration for half-maximal inhibition (IC50) with activated EGFR kinase was approximately 10 µM.
